Where a name gives a salt, the structure may show the parent alone.
Key:
Alzheimer patients = assay: Effect on an Alzheimer patient: cognitive state and mini-mental state examination (MMSE); format: in vivo, human; details: daily, discontinued after two weeks; person, MMSE 13
Procedure: Six weeks after the diagnosis, the patient's condition continued to deteriorate. The patient was administered memantine hydrochloride (Ebixa® tablet), an antidementia medicine, on a daily basis. Blood-pressure reducing medication was concomitantly administered and the blood pressure was measured to be on the average of 130/70 systolic/diastolic. However, the patient's deterioration appeared to be unaffected by the drug and administration of Ebixa was consequently discontinued after two weeks.
The following four months were characterized by sporadic memory lapses typical of a moderately severe affliction as well as behavioral deteriorations that occurred from time to time
Consequently, the blood-pressure reducing medication was discontinued and the administration of GSE was reduced to one capsule per day (300 mg) as GSE is known to reduce blood pressure.

[1] = General effect on mental faculties (memory) of a first subject; format: in vivo, human; details: 100 mg once daily over 40 days, after nocturnal sleep, same subject after ceasing GSE
Procedure: A first subject consumed a capsule containing 300 mg of Meganatural-BP® over a period of 18 months, once daily, immediately after nocturnal sleep. […] The same subject ceased to consume GSE and immediately subsequent consumed capsules of 100 mg EGCG (Lyan) over a period of 40 days, once daily, immediately after nocturnal sleep. 300 mg of Meganatural-BP® and 60 mg of EGCG capsules were concomitantly administered to the same subject, immediately after nocturnal sleep, following the EGCG regime.

amyloid fibrils = details: in-vitro; cited from earlier work
β-amyloid peptides = details: cited from earlier work

Compound | patient's deterioration (Alzheimer patients) | improvement of memory [1] | formation of β-sheet rich aggregation products such as amyloid fibrils (amyloid fibrils) | generation of β-amyloid peptides (β-amyloid peptides)
CC12CC3CC(C)(C1)CC(N)(C3)C2 [memantine hydrochloride] | unaffected | – | – | –
Epigallocatechin-3-gallate [EGCG] | – | No improvement of memory | prevented | reduces

From patent publication US20160106789A1, “Inhibition of Neurodegenerative Disease by Grape Seed Extract, Green Tea Extract and Probiotic Bacteria” (priority 2013, published 2016)
